Laboratory results taken from the NIST ThermoML archive (doi:10.1016/j.tca.2015.07.011).
“And” between values parts separate entries of the source, which are not always exact repeats. Identical values can stand only once.

Experiments:
[1] = for mass density: 293 K, 101.33 kPa, Pycnometric method; for vapor or sublimation pressure: Transpiration method
[2] = Molar enthalpy of transition or fusion; conditions: DSC

CC(C)COc1ccccc1C(=O)O [2-iso-butoxybenzoic acid]
Conditions | mass density [kg/m3]
[1], Liquid | 1100

[1], Liquid
Conditions | vapor or sublimation pressure
343.9 K | 0.0008 kPa
353.1 K | 0.00176 kPa
363.2 K | 0.0041 kPa
365.2 K | 0.0048 kPa
369.2 K | 0.00662 kPa
371.2 K | 0.00775 kPa
371.4 K | 0.00817 kPa and 0.00791 kPa
371.5 K | 0.00808 kPa
374.2 K | 0.01017 kPa
374.4 K | 0.00999 kPa
376.5 K | 0.01179 kPa
377.3 K | 0.01245 kPa
378.5 K | 0.01391 kPa
379.2 K | 0.01467 kPa
380.1 K | 0.01546 kPa
380.2 K | 0.01553 kPa
382.4 K | 0.0177 kPa
384.2 K | 0.02038 kPa
385.8 K | 0.02237 kPa
388.1 K | 0.02622 kPa
390.3 K | 0.03064 kPa
393 K | 0.03639 kPa
395.2 K | 0.04478 kPa
398.1 K | 0.05373 kPa

COc1ccccc1C(=O)O [2-methoxybenzoic acid]
[1], Crystal
Conditions | vapor or sublimation pressure [kPa]
342.4 K | 0.00098
346.2 K | 0.00152
348.2 K | 0.00181
350.3 K | 0.00221
352.2 K | 0.00272
354.3 K | 0.00347
356.2 K | 0.00419
358.9 K | 0.00536
361.4 K | 0.0068
363.2 K | 0.00813
366.2 K | 0.01064
367.9 K | 0.01262
371.5 K | 0.01728

CC(C)COc1cccc(C(=O)O)c1 [3-iso-butoxybenzoic acid]
Crystal
Conditions | Molar enthalpy of transition or fusion [kJ/mol] | mass density [kg/m3]
[1] | – | 1130
[2] | 25.2 | –

[1]
Conditions | Normal melting temperature [°C] | vapor or sublimation pressure [kPa]
354.8 K, Liquid | – | 0.00162
356.2 K, Liquid | – | 0.00181
357.4 K, Liquid | – | 0.00202
359.5 K, Liquid | – | 0.00238
361.2 K, Liquid | – | 0.00281
363 K, Liquid | – | 0.0032
364.2 K, Liquid | – | 0.00358
365.7 K, Liquid | – | 0.00406
368.3 K, Liquid | – | 0.00493
370.9 K, Liquid | – | 0.00601
372.7 K, Liquid | – | 0.00707
373.7 K, Liquid | – | 0.00763
375.3 K, Liquid | – | 0.00871
378.2 K, Liquid | – | 0.01099
380.1 K, Liquid | – | 0.013
382.7 K, Liquid | – | 0.01579
Crystal, DTA | 80.4 | –
Crystal, visual observation | 80.00 | –

CCCCOc1ccc(C(=O)O)cc1 [4-butoxybenzoic acid]
[1], Crystal
Conditions | vapor or sublimation pressure
377.8 K | 0.00164 kPa
383.4 K | 0.00285 kPa
391 K | 0.00586 kPa
396.2 K | 0.00973 kPa
399.3 K | 0.01214 kPa
401.3 K | 0.01536 kPa
406.4 K | 0.02366 kPa
411.4 K | 0.03676 kPa
415.4 K | 0.04923 kPa
417.3 K | 0.05826 kPa and 0.05838 kPa

CC(C)COc1ccc(C(=O)O)cc1 [4-iso-butoxybenzoic acid]
Conditions | Molar enthalpy of transition or fusion, Crystal 1 [kJ/mol] | Molar enthalpy of transition or fusion, Crystal 2 [kJ/mol] | Normal melting temperature, Crystal 1, DTA [°C] | Triple point temperature, Crystal 2, DTA [K] | mass density, Crystal [kg/m3]
[1] | – | – | 142.2 | 412.5 | 1130
[2] | 18.9 | 2.8 | – | – | –

[1]
Conditions | Normal melting temperature [°C] | vapor or sublimation pressure
342.3 K, Crystal 2 | – | 7e-05 kPa
343.5 K, Crystal 2 | – | 8e-05 kPa
346.4 K, Crystal 2 | – | 0.00011 kPa
348.5 K, Crystal 2 | – | 0.00014 kPa
349.2 K, Crystal 2 | – | 0.00015 kPa
353.4 K, Crystal 2 | – | 0.00026 kPa
353.6 K, Crystal 2 | – | 0.00025 kPa
356.9 K, Crystal 2 | – | 0.00038 kPa
359.2 K, Crystal 2 | – | 0.00046 kPa
360.4 K, Crystal 2 | – | 0.00055 kPa
361.6 K, Crystal 2 | – | 0.00066 kPa
363.4 K, Crystal 2 | – | 0.00078 kPa
363.5 K, Crystal 2 | – | 0.00078 kPa
365.4 K, Crystal 2 | – | 0.00096 kPa
365.9 K, Crystal 2 | – | 0.00102 kPa
367.8 K, Crystal 2 | – | 0.00122 kPa
368.2 K, Crystal 2 | – | 0.00119 kPa
368.7 K, Crystal 2 | – | 0.00134 kPa
368.9 K, Crystal 2 | – | 0.0014 kPa
370.7 K, Crystal 2 | – | 0.00162 kPa
373.1 K, Crystal 2 | – | 0.00199 kPa
373.3 K, Crystal 2 | – | 0.00216 kPa
378.6 K, Crystal 2 | – | 0.00342 kPa
379.3 K, Crystal 2 | – | 0.00369 kPa
381 K, Crystal 2 | – | 0.00422 kPa
388.5 K, Crystal 2 | – | 0.0089 kPa
390.5 K, Crystal 2 | – | 0.01034 kPa
393.6 K, Crystal 2 | – | 0.01381 kPa and 0.01388 kPa
393.7 K, Crystal 2 | – | 0.0142 kPa
393.8 K, Crystal 2 | – | 0.01384 kPa
395.2 K, Crystal 2 | – | 0.01617 kPa
396.9 K, Crystal 2 | – | 0.01961 kPa
397.4 K, Crystal 2 | – | 0.02032 kPa
398.6 K, Crystal 2 | – | 0.02126 kPa
399 K, Crystal 2 | – | 0.02336 kPa
399.9 K, Crystal 2 | – | 0.02413 kPa
402.6 K, Crystal 2 | – | 0.03218 kPa
403.2 K, Crystal 2 | – | 0.03283 kPa
Crystal, visual observation | 140.00 | –
